According to publication PMC2192625 (The Journal of Experimental Medicine, 1996):
Read-outs that look alike come from different tables or passages of the source. Residues, ends and D or L forms follow the SMILES beside them.

Tests used:
[1] = system: experimental allergic encephalomyelitis in HLA-DRA-IEα/HLA-DRB1*0401-IEβ Tg mice; format: in vivo, mouse
[2] = biological target: HLA-DRA-IEα/HLA-DRB1*0401-IEβ chimeric molecules purified from transfected M12.C3 cells (Homo sapiens, UniProt P01903+P01911, A100K/A169T/F76Y/I96L/K127E/L162R/M171V/N62H/P40V/Q125Y/R42H/S133A/S149N/S66Y/V115G/V209L/W38E); assay: biochemical; format: binding, human/mouse chimeric
[3] = biological target: HLA-DRB1*0401 molecules purified from Priess cells (Homo sapiens, UniProt P01903+P01911, A100K/A169T/F76Y/I96L/K127E/L162R/M171V/N62H/P40V/Q125Y/R42H/S133A/S149N/S66Y/V115G/V209L/W38E); assay: biochemical; format: binding

Structure (SMILES)	Severity: number of mice with clinical score 0 (no disease) ([1]; Non-Tg mice, n = 5, Table 2)	EAE developed (in words) ([1]; Tg mice)	Severity: number of mice with clinical score 0 (no disease) ([1]; Tg mice, n = 5, Table 2)	Severity: number of mice with clinical score 1 (tail atony) ([1]; Tg mice, n = 5, Table 2)	Severity: number of mice with clinical score 3 (hind-limb paralysis) ([1]; Tg mice, n = 5, Table 2)	IC50 [2] [nM]	IC50 [3] [nM]
CC[C@H](C)[C@H](NC(=O)[C@H](CC(N)=O)NC(=O)[C@H](CCCCN)NC(=O)[C@H](Cc1ccccc1)NC(=O)[C@H](Cc1ccccc1)NC(=O)[C@H](Cc1c[nH]cn1)NC(=O)[C@@H](NC(=O)[C@@H](N)C(C)C)C(C)C)C(=O)N[C@H](C(=O)N[C@H](C(=O)N1CCC[C@H]1C(=O)N[C@@H](CCCNC(=N)N)C(=O)N[C@H](C(=O)N1CCC[C@H]1C(=O)N1CCC[C@H]1C(=O)N1CCC[C@H]1C(=O)N[C@@H](CO)C(=O)N[C@@H](CCC(N)=O)C(=O)NCC(=O)N[C@@H](CCCCN)C(=O)O)[C@@H](C)O)[C@@H](C)O)C(C)C [MBP87-106] (H-VVHFFKNIVTPRTPPPSQGK-OH; N-terminus and C-terminus assumed)	5	only a mild EAE	2	2	1	–	–
CC[C@H](C)[C@H](NC(=O)[C@H](CO)NC(=O)[C@H](CCC(N)=O)NC(=O)[C@H](CS)NC(=O)[C@@H](NC(=O)[C@@H](NC(=O)[C@H](Cc1c[nH]c2ccccc12)NC(=O)[C@@H](NC(=O)[C@H](CC(N)=O)NC(=O)[C@H](Cc1ccccc1)NC(=O)[C@H](Cc1ccc(O)cc1)NC(=O)[C@@H](NC(=O)[C@@H](N)Cc1ccc(O)cc1)[C@@H](C)CC)[C@@H](C)O)[C@@H](C)O)[C@@H](C)O)C(=O)N[C@@H](C)C(=O)N[C@@H](Cc1ccccc1)C(=O)N1CCC[C@H]1C(=O)N[C@@H](CO)C(=O)N[C@@H](CCCCN)C(=O)O [PLP175-192] (H-YIYFNTWTTCQSIAFPSK-OH)	–	–	–	–	–	169	187
CSCC[C@H](NC(=O)[C@H](C)NC(=O)[C@H](CCCNC(=N)N)NC(=O)[C@@H](N)Cc1ccc(O)cc1)C(=O)N[C@@H](C)C(=O)N[C@@H](C)C(=O)N[C@@H](CC(C)C)C(=O)O [Peptide A6-m1-7] (H-YRAMAAL-OH)	–	–	–	–	–	530	410
CSCC[C@H](NC(=O)[C@H](C)NC(=O)[C@H](CCCNC(=N)N)NC(=O)[C@@H](N)Cc1ccc(O)cc1)C(=O)N[C@@H](C)C(=O)N[C@@H](CO)C(=O)N[C@@H](CC(C)C)C(=O)O [Peptide S6-m1-7] (H-YRAMASL-OH)	–	–	–	–	–	53	43
CSCC[C@H](NC(=O)[C@H](C)NC(=O)[C@H](CCCNC(=N)N)NC(=O)[C@@H](N)Cc1ccc(O)cc1)C(=O)N[C@@H](C)C(=O)N[C@H](C(=O)N[C@@H](CC(C)C)C(=O)O)[C@@H](C)O [m 1-7] (H-YRAMATL-OH)	–	–	–	–	–	130	120
